Test results published in ChEMBL document CHEMBL3727356, “Therapeutic compounds and compositions” (2014).

How the values were obtained:
Pyruvate kinase PKLR [1] = molecular target: Pyruvate kinase PKLR (Homo sapiens, UniProt P30613, R532W); test: Activation of PKR R532W mutant (unknown origin) incubated for 60 mins in presence of ADP, PEP and NADH by Spectraax microplate reader based assay
Pyruvate kinase PKLR [2] = molecular target: T1, Pyruvate kinase PKLR (Homo sapiens, UniProt P30613); test: Activation of wild type PKR (unknown origin) incubated for 60 mins in presence of ADP, PEP and NADH by Spectraax microplate reader based assay
Pyruvate kinase PKLR [3] = molecular target: Pyruvate kinase PKLR (Homo sapiens, UniProt P30613, R510Q); test: Activation of PKR R510Q mutant (unknown origin) incubated for 60 mins in presence of ADP, PEP and NADH by Spectraax microplate reader based assay
Pyruvate kinase PKLR [4] = molecular target: T1, Pyruvate kinase PKLR; test: Activation of wild type PKR (unknown origin) by cell based assay

Pyruvate kinase PKLR (Homo sapiens, UniProt P30613, R532W), sequence (P30613 whole entry R532W): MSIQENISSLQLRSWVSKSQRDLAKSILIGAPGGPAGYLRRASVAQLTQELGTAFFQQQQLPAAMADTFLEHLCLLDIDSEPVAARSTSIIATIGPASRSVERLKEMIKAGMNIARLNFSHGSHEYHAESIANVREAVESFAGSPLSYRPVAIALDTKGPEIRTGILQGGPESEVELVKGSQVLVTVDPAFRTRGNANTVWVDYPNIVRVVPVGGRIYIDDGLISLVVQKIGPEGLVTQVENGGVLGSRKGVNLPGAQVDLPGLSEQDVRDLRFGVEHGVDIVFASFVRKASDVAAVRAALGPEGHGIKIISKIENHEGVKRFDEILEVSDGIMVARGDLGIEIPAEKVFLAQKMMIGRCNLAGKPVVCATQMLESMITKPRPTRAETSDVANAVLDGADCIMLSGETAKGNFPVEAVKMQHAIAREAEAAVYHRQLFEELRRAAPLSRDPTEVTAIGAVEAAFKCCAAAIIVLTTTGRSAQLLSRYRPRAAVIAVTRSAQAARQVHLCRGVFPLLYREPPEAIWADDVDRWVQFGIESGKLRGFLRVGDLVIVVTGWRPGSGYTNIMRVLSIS
Pyruvate kinase PKLR (Homo sapiens, UniProt P30613, R510Q), sequence (P30613 whole entry R510Q): as the sequence (P30613 whole entry R532W) above, with R510Q, W532R counted along it
T1 sequence (P30613 whole entry): as the sequence (P30613 whole entry R532W) above, with W532R counted along it

Compound | AC50 (Pyruvate kinase PKLR [1]) [nM] | AC50 (Pyruvate kinase PKLR [2]) [nM] | AC50 (Pyruvate kinase PKLR [3]) [nM] | AC50 (Pyruvate kinase PKLR [4]) [nM]
O=C(c1ccc(NS(=O)(=O)c2cccc3nccnc23)cc1)N1CCC(O)(CCC=C(F)F)CC1 | < 100 | < 100 | < 100 | < 100
Cc1cc(C(=O)N2CCC(O)(Cc3ccccc3)CC2)ccc1NS(=O)(=O)c1cccc2cccnc12 | < 100 | < 100 | < 100 | < 100
Cc1nc(F)ccc1C1(O)CCN(C(=O)c2ccc(NS(=O)(=O)c3cccc4cccnc34)cc2)CC1 | < 100 | < 100 | < 100 | < 100
O=C(c1ccc(NS(=O)(=O)c2cccc3cccnc23)cc1)N1CCC(O)(Cc2ccccc2F)CC1 | < 100 | < 100 | < 100 | < 100
CCc1ccccc1C1(O)CCN(C(=O)c2ccc(NS(=O)(=O)c3cccc4cccnc34)cc2)CC1 | < 100 | < 100 | < 100 | < 100
O=C(c1ccc(NS(=O)(=O)c2cccc3cccnc23)cc1)N1CCC(O)(c2ccc(F)c(Br)n2)CC1 | < 100 | < 100 | < 100 | < 100
O=C(c1ccc(NS(=O)(=O)c2cccc3cccnc23)cc1)N1CCC(O)(Cc2ccccc2C(F)(F)F)CC1 | < 100 | < 100 | < 100 | < 100
Cc1cc(C(=O)N2CCC(O)(c3cccc(Cl)c3)CC2)ccc1NS(=O)(=O)c1cccc2cccnc12 | < 100 | < 100 | ≤ 1000 | < 100
O=C(c1ccc(NS(=O)(=O)c2cccc3cccnc23)cc1)N1CCC(O)(c2ccccc2Cl)CC1 | < 100 | < 100 | < 100 | < 100
Nc1cnc2c(S(=O)(=O)Nc3ccc(C(=O)N4CCC(O)(c5cccc(F)c5F)CC4)cc3)cccc2n1 | < 100 | < 100 | < 100 | < 100
Cc1cc(F)ccc1C1(O)CCN(C(=O)c2ccc(NS(=O)(=O)c3cccc4cccnc34)cc2)CC1 | < 100 | < 100 | < 100 | < 100
O=C(c1ccc(NS(=O)(=O)c2cccc3cccnc23)cc1)N1CCC(O)(Cc2c(F)cccc2F)CC1 | < 100 | < 100 | < 100 | < 100
Cc1ccccc1CC1(O)CCN(C(=O)c2ccc(NS(=O)(=O)c3cccc4cccnc34)cc2)CC1 | < 100 | < 100 | < 100 | < 100
Cc1ccccc1C1(O)CCN(C(=O)c2ccc(NS(=O)(=O)c3cccc4cccnc34)cc2)CC1 | < 100 | < 100 | < 100 | < 100
O=C(c1ccc(NS(=O)(=O)c2cccc3c(O)ncnc23)cc1)N1CCC(O)(CCCC(F)(F)F)CC1 | < 100 | < 100 | < 100 | < 100
O=C(c1ccc(NS(=O)(=O)c2cccc3cccnc23)cc1)N1CCC(O)(c2cccc(F)c2Cl)CC1 | < 100 | < 100 | < 100 | < 100
O=C(c1ccc(NS(=O)(=O)c2cccc3cccnc23)cc1)N1CCC(O)(c2ccc(F)cc2Cl)CC1 | < 100 | < 100 | < 100 | < 100
O=C(c1ccc(NS(=O)(=O)c2ccc(F)c3nccnc23)cc1)N1CCC(O)(c2cccc(F)c2F)CC1 | < 100 | < 100 | ≤ 1000 | ≥ 1010
O=C(c1ccc(NS(=O)(=O)c2cccc3nccnc23)cc1)N1CCC(O)(Cc2ccccc2C(F)(F)F)CC1 | < 100 | < 100 | < 100 | < 100
O=C(c1ccc(NS(=O)(=O)c2ccc3nsnc3c2)cc1)N1CCC(O)(Cc2ccccc2)CC1 | < 100 | < 100 | ≤ 1000 | ≤ 1000
O=C(c1ccc(NS(=O)(=O)c2cccc3cccnc23)c(F)c1)N1CCC(O)(c2ccccc2Cl)CC1 | < 100 | < 100 | < 100 | < 100
O=C(c1ccc(NS(=O)(=O)c2cccc3c2OCCC3)cc1)N1CCC(O)(c2ccccc2Cl)CC1 | < 100 | < 100 | < 100 | < 100
O=C(c1ccc(NS(=O)(=O)c2cccc3cccnc23)cc1F)N1CCC(O)(Cc2ccccc2)CC1 | < 100 | < 100 | < 100 | < 100
O=C(c1ccc(NS(=O)(=O)c2cccc3cccnc23)cc1)N1CCC(O)(Cc2cccc(F)c2)CC1 | < 100 | < 100 | < 100 | < 100
O=C(c1ccc(NS(=O)(=O)c2cccc3cccnc23)cc1OC(F)(F)F)N1CCC(O)(c2ccccc2Cl)CC1 | < 100 | < 100 | < 100 | < 100

More lines, now with the values ahead:

AC50 (Pyruvate kinase PKLR [1]) [nM] | AC50 (Pyruvate kinase PKLR [2]) [nM] | AC50 (Pyruvate kinase PKLR [3]) [nM] | AC50 (Pyruvate kinase PKLR [4]) [nM] | Compound
< 100 | < 100 | < 100 | < 100 | Nc1nc2c(S(=O)(=O)Nc3ccc(C(=O)N4CCC(O)(c5ccccc5Cl)CC4)cc3)cccc2s1
< 100 | < 100 | < 100 | < 100 | O=C(c1ccc(NS(=O)(=O)c2cccc3scnc23)cc1)N1CCC(O)(CCCC(F)F)CC1
< 100 | < 100 | < 100 | < 100 | O=C(c1ccc(NS(=O)(=O)c2cccc3scnc23)cc1)N1CCC(O)(Cc2ccccc2C(F)(F)F)CC1
< 100 | < 100 | < 100 | < 100 | CNc1nc2c(S(=O)(=O)Nc3ccc(C(=O)N4CCC(O)(CC(C)C)CC4)cc3)cccc2s1
< 100 | < 100 | < 100 | < 100 | CCCCC1(O)CCN(C(=O)c2ccc(NS(=O)(=O)c3cccc4cccnc34)cc2)CC1
< 100 | < 100 | < 100 | < 100 | Cc1nscc1CC1(O)CCN(C(=O)c2ccc(NS(=O)(=O)c3cccc4scnc34)cc2)CC1
< 100 | < 100 | < 100 | < 100 | CC(C)CC1(O)CCN(C(=O)c2ccc(NS(=O)(=O)c3cccc4ccc(N)nc34)cc2)CC1
< 100 | < 100 | < 100 | < 100 | CC(CC1(O)CCN(C(=O)c2ccc(NS(=O)(=O)c3cccc4sc(N)nc34)cc2)CC1)C(F)(F)F (centres undefined)
< 100 | < 100 | < 100 | < 100 | Nc1nc2c(S(=O)(=O)Nc3ccc(C(=O)N4CCC(O)(CCCC(F)(F)F)CC4)cc3)cccc2s1
< 100 | < 100 | < 100 | < 100 | O=C(c1ccc(NS(=O)(=O)c2cccc3cccnc23)cc1)N1CCC(O)(CC2CC2)CC1
< 100 | < 100 | < 100 | < 100 | CC(C)CC1(O)CCN(C(=O)c2ccc(NS(=O)(=O)c3cc(F)cc4sc(N)nc34)cc2)CC1
< 100 | < 100 | < 100 | < 100 | Cc1nscc1CC1(O)CCN(C(=O)c2ccc(NS(=O)(=O)c3cccc4nccnc34)cc2)CC1
< 100 | < 100 | < 100 | < 100 | Nc1nc2c(S(=O)(=O)Nc3ccc(C(=O)N4CCC(O)(c5ccccc5Cl)CC4)cc3)cc(F)cc2s1
< 100 | < 100 | < 100 | < 100 | CC(C)CC1(O)CCN(C(=O)c2ccc(NS(=O)(=O)c3cccc4c(O)ncnc34)cc2)CC1
< 100 | < 100 | < 100 | < 100 | CC1(CC2(O)CCN(C(=O)c3ccc(NS(=O)(=O)c4cccc5cccnc45)cc3)CC2)CC1
< 100 | < 100 | < 100 | < 100 | CC(C)CC1(C=O)CCN(C(=O)c2ccc(NS(=O)(=O)c3cccc4cccnc34)cc2)CC1
< 100 | < 100 | < 100 | < 100 | CC(C)CC1(CO)CCN(C(=O)c2ccc(NS(=O)(=O)c3cccc4cccnc34)cc2)CC1
< 100 | < 100 | < 100 | < 100 | CC(C)CCC1(O)CCN(C(=O)c2ccc(NS(=O)(=O)c3cccc4scnc34)cc2)CC1
< 100 | < 100 | < 100 | < 100 | CNc1nc2c(S(=O)(=O)Nc3ccc(C(=O)N4CCC(O)(CC(C)C)CC4)cc3)cc(Cl)cc2s1
< 100 | < 100 | < 100 | < 100 | CC(C)CC1(O)CCN(C(=O)c2ccc(NS(=O)(=O)c3cccc4sc(N)nc34)cc2)CC1
< 100 | < 100 | < 100 | < 100 | CC(C)CC1(O)CCN(C(=O)c2ccc(NS(=O)(=O)c3cccc4ncc(N)nc34)cc2)CC1
< 100 | < 100 | < 100 | < 100 | CC(C)(C)CC1(O)CCN(C(=O)c2ccc(NS(=O)(=O)c3cccc4nccnc34)cc2)CC1
< 100 | < 100 | < 100 | < 100 | Nc1cnc2c(S(=O)(=O)Nc3ccc(C(=O)N4CCC(O)(CCCC(F)(F)F)CC4)cc3)cccc2n1
< 100 | < 100 | < 100 | < 100 | CC(C)CC1(O)CCN(C(=O)c2ccc(NS(=O)(=O)c3cccc4cccnc34)cc2)CC1
< 100 | < 100 | < 100 | < 100 | CC(C)CC1(O)CCN(C(=O)c2ccc(NS(=O)(=O)c3cccc4nccnc34)cc2)CC1
< 100 | < 100 | < 100 | < 100 | O=C(c1ccc(NS(=O)(=O)c2cccc3cccnc23)cc1)N1CCC(O)(CC2CCC2)CC1
